Measured values as given in patent US8192962B2, “Processes for detecting toxic substances” (Daikin Industries, Ltd., priority 2001, dated 2012).

System: Stress protein genes
Experiment: DNA chip mRNA expression in yeast, stress protein genes (Table 6)
Assay type: cell-based, Saccharomyces cerevisiae S288C
Procedure, shortened: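 Chemical exposure: 2 h, log-phase S. cerevisiae S288C, YPD, 25° C., dose set to inhibit growth without death. Profiling: mRNA labeled by reverse transcription with Cy3- or Cy5-dUTP, hybridized to whole-genome array. Output: fluorescence ratio against untreated culture.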

SMILES: S=C([S-])NCCNC(=S)[S-].[Zn+2] [(11), zinc N,N′-ethylenebis(dithiocarbamate)]
- The level of expressed mRNA in the presence of chemical substance/The level of expressed mRNA in the absence of chemical substance (yeast gene YAL005C): 1.0
- The level of expressed mRNA in the presence of chemical substance/The level of expressed mRNA in the absence of chemical substance (yeast gene YAL015C): 1.4
- The level of expressed mRNA in the presence of chemical substance/The level of expressed mRNA in the absence of chemical substance (yeast gene YBL075C): 1.6
- The level of expressed mRNA in the presence of chemical substance/The level of expressed mRNA in the absence of chemical substance (yeast gene YBL093C): 1.3
- The level of expressed mRNA in the presence of chemical substance/The level of expressed mRNA in the absence of chemical substance (yeast gene YBR044C): 1.1
- The level of expressed mRNA in the presence of chemical substance/The level of expressed mRNA in the absence of chemical substance (yeast gene YBR054W): 1.8
- The level of expressed mRNA in the presence of chemical substance/The level of expressed mRNA in the absence of chemical substance (yeast gene YBR067C): 3.1
- The level of expressed mRNA in the presence of chemical substance/The level of expressed mRNA in the absence of chemical substance (yeast gene YBR072W): 6.3
- The level of expressed mRNA in the presence of chemical substance/The level of expressed mRNA in the absence of chemical substance (yeast gene YBR126C): 1.1
- The level of expressed mRNA in the presence of chemical substance/The level of expressed mRNA in the absence of chemical substance (yeast gene YBR169C): 2.2
- The level of expressed mRNA in the presence of chemical substance/The level of expressed mRNA in the absence of chemical substance (yeast gene YCL035C): 2.1
- The level of expressed mRNA in the presence of chemical substance/The level of expressed mRNA in the absence of chemical substance (yeast gene YCR021C): 0.6
- The level of expressed mRNA in the presence of chemical substance/The level of expressed mRNA in the absence of chemical substance (yeast gene YCR060W): 1.2
- The level of expressed mRNA in the presence of chemical substance/The level of expressed mRNA in the absence of chemical substance (yeast gene YCR083W): 1.8
- The level of expressed mRNA in the presence of chemical substance/The level of expressed mRNA in the absence of chemical substance (yeast gene YDL022W): 2.8
- The level of expressed mRNA in the presence of chemical substance/The level of expressed mRNA in the absence of chemical substance (yeast gene YDL025C): 1.5
- The level of expressed mRNA in the presence of chemical substance/The level of expressed mRNA in the absence of chemical substance (yeast gene YDR033W): 0.7
- The level of expressed mRNA in the presence of chemical substance/The level of expressed mRNA in the absence of chemical substance (yeast gene YDR077W): 6.8
- The level of expressed mRNA in the presence of chemical substance/The level of expressed mRNA in the absence of chemical substance (yeast gene YDR098C): 1.4
- The level of expressed mRNA in the presence of chemical substance/The level of expressed mRNA in the absence of chemical substance (yeast gene YDR155C): 3.8
- The level of expressed mRNA in the presence of chemical substance/The level of expressed mRNA in the absence of chemical substance (yeast gene YDR258C): 1.7
- The level of expressed mRNA in the presence of chemical substance/The level of expressed mRNA in the absence of chemical substance (yeast gene YDR293C): 1.1
- The level of expressed mRNA in the presence of chemical substance/The level of expressed mRNA in the absence of chemical substance (yeast gene YDR436W): 2.0
- The level of expressed mRNA in the presence of chemical substance/The level of expressed mRNA in the absence of chemical substance (yeast gene YDR513W): 2.0
- The level of expressed mRNA in the presence of chemical substance/The level of expressed mRNA in the absence of chemical substance (yeast gene YDR519W): 1.2
- The level of expressed mRNA in the presence of chemical substance/The level of expressed mRNA in the absence of chemical substance (yeast gene YEL030W): 1.7
- The level of expressed mRNA in the presence of chemical substance/The level of expressed mRNA in the absence of chemical substance (yeast gene YEL039C): 1.7
- The level of expressed mRNA in the presence of chemical substance/The level of expressed mRNA in the absence of chemical substance (yeast gene YER042W): 1.8
- The level of expressed mRNA in the presence of chemical substance/The level of expressed mRNA in the absence of chemical substance (yeast gene YER057C): 1.8
- The level of expressed mRNA in the presence of chemical substance/The level of expressed mRNA in the absence of chemical substance (yeast gene YER103W): 1.8
- The level of expressed mRNA in the presence of chemical substance/The level of expressed mRNA in the absence of chemical substance (yeast gene YER125W): 1.0
- The level of expressed mRNA in the presence of chemical substance/The level of expressed mRNA in the absence of chemical substance (yeast gene YFL014W): 5.0
- The level of expressed mRNA in the presence of chemical substance/The level of expressed mRNA in the absence of chemical substance (yeast gene YFL016C): 1.2
- The level of expressed mRNA in the presence of chemical substance/The level of expressed mRNA in the absence of chemical substance (yeast gene YFL020C): 1.2
- The level of expressed mRNA in the presence of chemical substance/The level of expressed mRNA in the absence of chemical substance (yeast gene YFR052W): 0.9
- The level of expressed mRNA in the presence of chemical substance/The level of expressed mRNA in the absence of chemical substance (yeast gene YGL073W): 0.8
- The level of expressed mRNA in the presence of chemical substance/The level of expressed mRNA in the absence of chemical substance (yeast gene YGL115W): 1.0
- The level of expressed mRNA in the presence of chemical substance/The level of expressed mRNA in the absence of chemical substance (yeast gene YGL181W): 1.2
- The level of expressed mRNA in the presence of chemical substance/The level of expressed mRNA in the absence of chemical substance (yeast gene YGR088W): 3.9
- The level of expressed mRNA in the presence of chemical substance/The level of expressed mRNA in the absence of chemical substance (yeast gene YHL028W): 0.7
- The level of expressed mRNA in the presence of chemical substance/The level of expressed mRNA in the absence of chemical substance (yeast gene YHL046C): 0.4
- The level of expressed mRNA in the presence of chemical substance/The level of expressed mRNA in the absence of chemical substance (yeast gene YHR030C): 1.5
- The level of expressed mRNA in the presence of chemical substance/The level of expressed mRNA in the absence of chemical substance (yeast gene YHR057C): 1.6
- The level of expressed mRNA in the presence of chemical substance/The level of expressed mRNA in the absence of chemical substance (yeast gene YHR104W): 2.6
- The level of expressed mRNA in the presence of chemical substance/The level of expressed mRNA in the absence of chemical substance (yeast gene YIL011W): 2.5
